Laboratory results: patent publication US7632871B2, “Methods of making and methods of using antiseptic disinfectant, cosmetic and toiletries, medicine or food containing the same” (Mandom Corporation, priority 2002, dated 2009)

Tests used:
Format in all cases: cell-based
[1] = test system: Staphylococcus aureus IF013276; experiment: Dual minimum inhibitory concentration (agar dilution MIC) of 1,2-octanediol combined with a fragrance component, Staphylococcus aureus; settings: fragrance component combined with 1,2-octanediol (50:50 by weight mixture); agar medium, 35° C., growth judged after two days
Method: (§1) Candida albicans IFO1594 (mycotic stomatitis), Staphylococcus aureus IF013276 (Staphylococcus aureus), and Pseudomonas aeruginosa IF013275 (Pseudomonas) are used as sample bacterias.
(§2) For preparing bacteria, as to Staphylococcus aureus and Pseudomonas, they are incubated at 35° C. in the agar medium, and further incubated at 35° C. after transferred into the bouillon medium. The inoculating bacteria is prepared by diluting the obtained culture solution to about 10^8 inoculating cell/ml.
(§3) With a dilution solvent of ethyl cellosolve of 20 w/w %, 1,2-octanediol solution of 5, 4, 3, 2.5, 2.25, 2, 1.75, 1.5, 1.25 and 1 w/v % are prepared.
(§4) While, as to thymol and the 50:50 by weight mixture of 1,2-octanediol and thymol, the dilution series are prepared by doubling diluting the 20w/v % solution.
(§5) 1 ml of each of the above-mentioned dilution series including the test material and 9 ml of the agar medium are introduced to each schales, and the above-mentioned inoculating bacteria was applied on each of the schales at the length of 1 cm.
(§6) Staphylococcus aureus and Pseudomonas were incubated at 35° C., and it was judged whether or not the bacteria had grown two days later. The yeast was incubated at 25° C., and it was judged whether or not the bacteria had grown three days later.
(§7) Each MIC of the obtained 1,2-octanediol, thymol, and the 50:50 mixture by weight of 1,2-octanediol and thymol corresponding the compounding amount of 1,2-octanediol and thymol is plotted to make out the dual minimum inhibitory concentration. Action and effect in case that two kinds of antibacterial materials are compounded can be judged by the dual minimum inhibitory concentration. More specifically, the actions caused by compounding two antibacterial materials are roughly classified into synergistic action, additive action and counteraction. Synergistic action is the action in that two kinds of agent act synergistically, to enhance the antibacterial activity that the agents originally have. The additive action is the action in that the antibacterial activities of the agents are put together. The counteraction is the action in that one agent cancels the antibacterial activity of the other agent.
(§8) The method using dual minimum inhibitory concentration, as shown in FIG. 1 for example, is the method to measure MICs as to material A and Material B at different proportions of them and to judge the result in view of the graph. In this method, a line is drawn to connect MIC (point A) in using only material A to MIC (point B) in using only material B. When the MIC (point C) in using both materials is inside the line, it is judged to be Synergistic action that antibacterial activity was strengthened by the combined use. When the MIC (point D) is on the line, it can be judged to be the additive action. When the MIC (point E) is in the outside of the line, it is judged to be the counteraction that cancels antibacterial activity of one or both of the materials to decrease the antibacterial activity.
(§9) The antibacterial effect in the case of mixing 1,2-octanediol and thymol was evaluated by the following evaluation criterion from dual minimum inhibitory concentration diagram in FIG. 2.

[2] = test system: Candida albicans IFO1594; experiment: Dual minimum inhibitory concentration (agar dilution MIC) of 1,2-octanediol combined with a fragrance component, Candida albicans; settings: fragrance component combined with 1,2-octanediol (50:50 by weight mixture); agar medium, 25° C., growth judged after three days
Method: as §1
As to yeast (Candida albicans), the inoculating bacteria is prepared by incubating the yeast in the same way as Staphylococcus aureus and Pseudomonas at 30° C. and diluting the yeast to about 10^7 cell/ml.
as §3, §4, §5, §6, §7, §8, §9

[3] = test system: Pseudomonas aeruginosa IF013275; experiment: Dual minimum inhibitory concentration (agar dilution MIC) of 1,2-octanediol combined with a fragrance component, Pseudomonas aeruginosa; settings: fragrance component combined with 1,2-octanediol (50:50 by weight mixture); agar medium, 35° C., growth judged after two days
Method: as §1, §2, §3, §4, §5
Staphylococcus aureus and Pseudomonas were incubated at 35° C., and it was judged whether or not the bacteria had grown two days later. […]
as §9

[4] = test system: Escherichia coli IFO3972; experiment: Dual minimum inhibitory concentration (agar dilution MIC) of 1,2-octanediol combined with a fragrance component, Escherichia coli; design: key: ◯: There is synergistic action in the antibacterial effect.; Δ: There is additive action in the antibacterial effect.; ×: There is counteraction in the antibacterial effect; settings: fragrance component combined with 1,2-octanediol (50:50 by weight mixture); same way as Embodiment 1, E. coli instead of P. aeruginosa
Method: as §2, §3, §4
1 ml of each of the above-mentioned dilution series including the test material and 9 ml of the agar medium are introduced to each schales, and the above-mentioned inoculating bacteria was applied on each of the schales at the length of 1 cm. […]
as §9
Manipulating each of citronellol and β-pinene for fragrance component in the same way as in Embodiment 1 using Escherichia coli IFO3972 instead of Pseudomonas aeruginosa IF013275, each dual minimum inhibitory concentration of FIGS. 6-7 was obtained. […] From the obtained result, the antibacterial effect was evaluated by the above-mentioned evaluation criterion.

Row | Compound | antibacterial effect of mixing with 1,2-octanediol, judged from dual minimum inhibitory concentration diagram, S. aureus [1] | antibacterial effect of mixing with 1,2-octanediol, judged from dual minimum inhibitory concentration diagram, C. albicans [2] | antibacterial effect of mixing with 1,2-octanediol, judged from dual minimum inhibitory concentration diagram, P. aeruginosa [3] | antibacterial effect of mixing with 1,2-octanediol, judged from dual minimum inhibitory concentration diagram, E. coli [4]
1 | CC(=O)O[C@@H]1C[C@H]2CC[C@]1(C)C2(C)C (racemic) [isobornyl acetate, reference compound] | ∘ |  |  | 
2 | C=CCc1ccc(O)c(OC)c1 [Eugenol] | ∘ | ∘ | ∘ | 
3 | Cc1ccc(C(C)C)c(O)c1 [Thymol] | ∘ | ∘ | ∘ | 
4 | CC(C)=CCCC(C)CC=O (stereo not drawn) [citronellal] | ∘ | ∘ |  | 
5 | CC(C)=CCCC(C)CCO (stereo not drawn) [citronellol] | ∘ | ∘ |  | ∘
6 | CC(=O)OC(C)(C)C1CC=C(C)CC1 (stereo not drawn) [terpinyl acetate] | ∘ | ∘ |  | 
7 | C=C1CCC2CC1C2(C)C (stereo not drawn) [β-pinene] | ∘ | ∘ |  | Δ
8 | guaiac acetate [reference compound] | ∘ |  |  | 
